Source: article PMC11790763, “A Peptide Motif Covering Splice Site B in Neuroligin-1 Binds to Aβ and Acts as a Neprilysin Inhibitor” (Molecular Neurobiology, 2024)
Bridges are numbered along the chain shown (N, C = ends). Roman numbers before positions name the chains, in order. Where no end group is shown, it is not given here.

Experiments:
[1] = test system: 5XFAD mice; assay: GFAP immunoreactivity (astrogliosis) in cortex; assay type: in vivo, mouse; details: 10 mg/kg s.c. three times a week for 10 weeks, neurolide n = 11 versus vehicle n = 13, p < 0.01
Protocol: At the age of 2 months, 5XFAD and WT mice were injected subcutaneously (s.c.) with either neurolide (10 mg/kg) or saline in a volume of 0.1 ml/10 g of body weight three times a week for 10 weeks.
After 10 weeks of treatment, mice were transcardially perfused with 0.1 M PBS, pH 7.4 under deep pentobarbital anesthesia (intraperitoneal, 200 mg/kg). The left brain hemispheres were postfixed in 4% paraformaldehyde in PBS. The brain hemispheres were further dehydrated in ethanol, cleared, embedded in paraffin blocks and serially sectioned into 7-μm coronal sections through the entire brain hemisphere. Parallel series of sections were collected, consisting of 12 equally spaced Sects. (400 μm apart). One of the series was stained with 1% Thioflavin-S for histological evaluation of Aβ plaque formation. Another series was used for immunohistochemical staining of GFAP + astrocytes as described previously. Extracellular Aβ plaque load was assessed in cortex, hippocampus, striatum, thalamus, and hypothalamus. GFAP-positive astrocytes were assessed in motor cortex. Serial super images of whole-brain sections were acquired using an Olympus BX-51 microscope equipped with the Visiopharm Integrator System software (Visiopharm) and analyzed using the ImageJ software package. […] The area, covered by Thioflavin-S or GFAP staining, was measured in selected regions.

[2] = molecular target: T1, brain-derived NEP (Mus musculus, UniProt Q61391); assay: Neprilysin activity in NEP-enriched brain membrane fraction of 5XFAD mice; assay type: biochemical, mouse (5XFAD); details: 5XFAD mice membrane fraction; neurolide 10 μM; n = 6
T1 construct: Clear supernatants were used as membrane-extracted fractions; from tissue; host or cells: adult mouse brain without cerebellum, Triton X-100-extracted membrane fraction
T1 sequence (Q61391 1-750): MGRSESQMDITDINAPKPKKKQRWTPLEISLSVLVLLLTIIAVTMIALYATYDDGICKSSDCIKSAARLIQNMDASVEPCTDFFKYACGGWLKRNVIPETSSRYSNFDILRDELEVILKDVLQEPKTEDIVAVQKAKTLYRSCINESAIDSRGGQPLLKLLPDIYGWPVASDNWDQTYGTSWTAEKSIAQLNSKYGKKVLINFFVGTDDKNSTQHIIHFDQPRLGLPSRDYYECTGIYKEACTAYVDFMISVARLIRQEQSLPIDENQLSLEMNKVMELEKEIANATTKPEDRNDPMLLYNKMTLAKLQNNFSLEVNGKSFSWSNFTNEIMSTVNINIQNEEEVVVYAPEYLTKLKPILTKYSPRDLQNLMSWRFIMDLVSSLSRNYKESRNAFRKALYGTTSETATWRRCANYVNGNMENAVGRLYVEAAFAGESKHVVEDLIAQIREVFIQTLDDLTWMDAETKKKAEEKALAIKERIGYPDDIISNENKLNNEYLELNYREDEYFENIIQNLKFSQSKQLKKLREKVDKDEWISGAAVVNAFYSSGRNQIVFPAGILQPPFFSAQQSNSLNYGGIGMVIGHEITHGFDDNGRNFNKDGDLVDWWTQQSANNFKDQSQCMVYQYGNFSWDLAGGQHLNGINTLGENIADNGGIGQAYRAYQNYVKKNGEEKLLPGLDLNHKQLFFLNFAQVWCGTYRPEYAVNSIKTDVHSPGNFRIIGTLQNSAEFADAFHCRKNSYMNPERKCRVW
Protocol: To measure NEP activity in brain tissue, whole brains without cerebellum were dissected from adult mice (C57Bl/6j or 5XFAD) and homogenized with a Teflon-glass homogenizer in five volumes (w/v) of ice-cold lysis buffer containing PBS (pH 7.4), 0.25 M sucrose and protease inhibitor cocktail (Complete™, EDTA-free, Roche Diagnostics, Indianapolis, IN). The homogenates were centrifuged at 9000 × g for 15 min at 4 °C. The supernatants were further centrifuged at 20,000 × g at 4 °C for 20 min. The resulting pellets were solubilized in resuspension buffer containing PBS (pH 7.4) and 1% Triton X-100 for 1 h on ice and again centrifuged at 20,000 × g at 4 °C for 20 min. Clear supernatants were used as membrane-extracted fractions. Protein concentrations of Triton-extracted membrane fractions were determined using the Pierce BCA Protein Assay kit (Thermo Fisher Scientific). The standard assay mixture consisted of membrane fraction containing 40 μg total protein diluted in 40 μl of dilution buffer, 10 μl of testing compound (NL1, neurolide or vehicle), and 50 μl of NEP substrate (5-FAM/QXL; Anaspec) in a total volume of 100 μl. The reaction was initiated by adding substrate to the assay mixture. […] Fluorescence was measured at Ex/Em = 485/535 nm every 20 min for 2 h. The data were expressed as percentage of relative activity of neprilysin.

[3] = molecular target: Aβ40-1; assay: Competitive ELISA with reversed Aβ (Aβ40-1) as negative control; assay type: binding; details: competitive ELISA with biotinylated reverse Aβ40-1; signal only at the highest neurolide concentration; p < 0.0001 versus Aβ1-40
Protocol: NL1 and NL1-derived peptide binding to Aβ was measured by competitive ELISA using the shorter Aβ1-40 peptide with a slower polymerization constant, optimized for this binding assay. Recombinant NL1 (3.125 nM) was immobilized on a poly-sorb 96-well plate (NUNC, Roskilde, Denmark) using sodium bicarbonate buffer (pH 9.6), and left overnight at 4 °C, followed by washing with PBST buffer (PBS supplemented with 0.1% [vol/vol] Tween-20, pH 7.4). In separate tubes, biotinylated Aβ1-40, at final concentration 400 nM, was premixed with serially diluted NL1 or NL1-derived peptides for 30 min. A reversed version of Aβ (Aβ40-1) was used as the respective negative control (Supplementary Fig. 1). After preincubation, the samples were centrifuged at 20,000 × g for 10 min at 4 °C and 100 μl of the mixtures were transferred in triplicates onto the precoated ELISA plate. Plates were incubated at room temperature for 4 h, followed by washing and incubation with streptavidin-HRP conjugate (1:1000, 1 h; Dako, Glostrup, Denmark). The signal was developed with TMB ONE (KEM-EN-TEC, Denmark), and the reaction was terminated with 0.2 M H2SO4. Absorbance was measured at 450 nm on a Wallac VICTOR2 1420 Multilabel Counter (PerkinElmer, Hvidovre, Denmark). […]

## I: SEGNRWSNSTKGLFQRAKK-NH2 / II: SEGNRWSNSTKGLFQRAK / III: SEGNRWSNSTKGLFQRA / IV: SEGNRWSNSTKGLFQRA (amide I:18-IV:C, I:19-II:C, II:18-III:C; C-terminus assumed) [neurolide]
[1]
  area of GFAP-immunoreactivity (gliosis) in the cortex: significant increase
[2]
  NEP activity compared to untreated 5XFAD control: significant decrease
[3]
  Kd: 7.5 µM
